This is an account of results in ChEMBL document CHEMBL2062359, “Pyrimidinopyrimidine inhibitors of ketohexokinase: exploring the ring C2 group that interacts with Asp-27B in the ligand binding pocket” (Bioorg Med Chem Lett, 2012).

Molecules are shown by their SMILES.

Assay [1] concerns the target T1, Ketohexokinase (Homo sapiens, UniProt P50053).
T1 sequence (P50053 whole entry): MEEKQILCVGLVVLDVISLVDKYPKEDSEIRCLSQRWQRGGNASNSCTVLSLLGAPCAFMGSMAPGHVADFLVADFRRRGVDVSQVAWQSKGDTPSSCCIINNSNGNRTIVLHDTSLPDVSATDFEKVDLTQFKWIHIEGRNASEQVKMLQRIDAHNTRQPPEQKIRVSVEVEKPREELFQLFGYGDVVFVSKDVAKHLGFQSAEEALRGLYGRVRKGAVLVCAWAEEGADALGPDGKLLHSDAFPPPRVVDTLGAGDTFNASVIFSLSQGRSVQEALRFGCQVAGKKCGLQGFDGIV
The assay is described as follows: Inhibition of recombinant human hepatic KHKC.

Assay [2] deals with T1, Ketohexokinase. The assay is described as follows: Inhibition of KHKC in human HepG2 cells assessed as level of fructose-1-phosphate. Format: cell-based.
The target of assay [3] is Interleukin-1 receptor-associated kinase 4 (Homo sapiens, UniProt Q9NWZ3). The assay is described as follows: Inhibition of IRAK4 by FRET assay.
Chain of Interleukin-1 receptor-associated kinase 4 (Q9NWZ3 whole entry): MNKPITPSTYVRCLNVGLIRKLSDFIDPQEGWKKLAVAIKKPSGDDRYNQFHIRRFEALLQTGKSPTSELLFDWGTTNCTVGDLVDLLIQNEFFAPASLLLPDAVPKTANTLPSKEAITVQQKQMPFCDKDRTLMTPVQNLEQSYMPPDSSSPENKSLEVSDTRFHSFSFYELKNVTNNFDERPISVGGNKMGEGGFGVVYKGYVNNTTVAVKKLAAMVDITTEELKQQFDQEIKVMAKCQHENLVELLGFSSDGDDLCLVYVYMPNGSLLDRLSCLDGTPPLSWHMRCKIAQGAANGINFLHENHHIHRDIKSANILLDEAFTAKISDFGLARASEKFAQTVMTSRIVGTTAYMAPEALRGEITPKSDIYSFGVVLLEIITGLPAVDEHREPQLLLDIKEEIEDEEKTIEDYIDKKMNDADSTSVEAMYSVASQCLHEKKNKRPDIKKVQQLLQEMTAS
Assay [4] addresses Death-associated protein kinase 3 (Homo sapiens, UniProt O43293). The assay is described as follows: Inhibition of DAPK3 by FRET assay.
The target of assay [5] is Serine/threonine-protein kinase PLK3 (Homo sapiens, UniProt Q9H4B4). Briefly: Inhibition of PLK3 by FRET assay.
The target in assay [6] is RAC-alpha serine/threonine-protein kinase (Homo sapiens, UniProt P31749). The assay is described as follows: Inhibition of AKT1 by FRET assay.
Assay [7] concerns the target Cyclin-dependent kinase 1/cyclin B1 (Homo sapiens, UniProt P06493). The assay is described as follows: Inhibition of CDK1/cyclin B by FRET assay. Format: protein-complex assay.
Assay [8] addresses cAMP-dependent protein kinase catalytic subunit alpha (Homo sapiens, UniProt P17612). Briefly: Inhibition of PRKACA by FRET assay.
The target in assay [9] is Ribosomal protein S6 kinase alpha-3 (Homo sapiens, UniProt P51812). The assay is described as follows: Inhibition of RPS6KA3 by FRET assay.
The next assay concerns the target Activin receptor type-1B (Homo sapiens, UniProt P36896). The assay is described as follows: Inhibition of ALK4 by FRET assay.
Assay [10] deals with Serine/threonine-protein kinase Chk2 (Homo sapiens, UniProt O96017). Briefly: Inhibition of CHEK2 by FRET assay.
Chain of Serine/threonine-protein kinase Chk2 (O96017 whole entry): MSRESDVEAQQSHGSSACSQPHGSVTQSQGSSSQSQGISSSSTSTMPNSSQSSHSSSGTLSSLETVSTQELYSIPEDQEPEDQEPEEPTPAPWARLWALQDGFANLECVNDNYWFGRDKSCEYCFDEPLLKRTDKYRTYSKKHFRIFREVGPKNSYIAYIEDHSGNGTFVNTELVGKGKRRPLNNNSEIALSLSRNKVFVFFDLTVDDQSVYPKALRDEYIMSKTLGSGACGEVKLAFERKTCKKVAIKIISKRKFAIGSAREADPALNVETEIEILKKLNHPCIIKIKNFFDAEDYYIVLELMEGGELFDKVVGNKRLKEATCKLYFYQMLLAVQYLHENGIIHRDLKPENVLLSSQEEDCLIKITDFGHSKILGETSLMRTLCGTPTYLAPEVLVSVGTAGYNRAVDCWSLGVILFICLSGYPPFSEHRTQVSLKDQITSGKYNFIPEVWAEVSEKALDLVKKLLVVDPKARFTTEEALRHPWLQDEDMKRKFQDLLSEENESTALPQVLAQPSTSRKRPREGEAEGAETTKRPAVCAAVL
For assay [11], the target named is Protein kinase C theta type (Homo sapiens, UniProt Q04759). Briefly: Inhibition of PRKCQ by FRET assay.
Assay [12] addresses Casein kinase I isoform delta (Homo sapiens, UniProt P48730). Briefly: Inhibition of CSNK1D by FRET assay.
Assay [13] has as its target Rho-associated protein kinase 1 (Homo sapiens, UniProt Q13464). The assay is described as follows: Inhibition of ROCK1 by FRET assay.
For assay [14], the target named is Serine/threonine-protein kinase Nek2 (Homo sapiens, UniProt P51955). The assay is described as follows: Inhibition of NEK2 by FRET assay.
For assay [15], the target named is Serine/threonine-protein kinase pim-2 (Homo sapiens, UniProt Q9P1W9). The assay is described as follows: Inhibition of PIM2 by FRET assay.
Assay [16] has as its target Calcium/calmodulin-dependent protein kinase type 1D (Homo sapiens, UniProt Q8IU85). The assay is described as follows: Inhibition of CAMK1D by FRET assay.
The target of assay [17] is Tyrosine-protein kinase ABL1 (Homo sapiens, UniProt P00519). The assay is described as follows: Inhibition of ABL1 by FRET assay.
Assay [18] addresses Mitogen-activated protein kinase 13 (Homo sapiens, UniProt O15264). Briefly: Inhibition of MAPK13 by FRET assay.
The target in another assay is Ephrin type-B receptor 1 (Homo sapiens, UniProt P54762). The assay is described as follows: Inhibition of EPHB1 by FRET assay.
Chain of Ephrin type-B receptor 1 (P54762 whole entry): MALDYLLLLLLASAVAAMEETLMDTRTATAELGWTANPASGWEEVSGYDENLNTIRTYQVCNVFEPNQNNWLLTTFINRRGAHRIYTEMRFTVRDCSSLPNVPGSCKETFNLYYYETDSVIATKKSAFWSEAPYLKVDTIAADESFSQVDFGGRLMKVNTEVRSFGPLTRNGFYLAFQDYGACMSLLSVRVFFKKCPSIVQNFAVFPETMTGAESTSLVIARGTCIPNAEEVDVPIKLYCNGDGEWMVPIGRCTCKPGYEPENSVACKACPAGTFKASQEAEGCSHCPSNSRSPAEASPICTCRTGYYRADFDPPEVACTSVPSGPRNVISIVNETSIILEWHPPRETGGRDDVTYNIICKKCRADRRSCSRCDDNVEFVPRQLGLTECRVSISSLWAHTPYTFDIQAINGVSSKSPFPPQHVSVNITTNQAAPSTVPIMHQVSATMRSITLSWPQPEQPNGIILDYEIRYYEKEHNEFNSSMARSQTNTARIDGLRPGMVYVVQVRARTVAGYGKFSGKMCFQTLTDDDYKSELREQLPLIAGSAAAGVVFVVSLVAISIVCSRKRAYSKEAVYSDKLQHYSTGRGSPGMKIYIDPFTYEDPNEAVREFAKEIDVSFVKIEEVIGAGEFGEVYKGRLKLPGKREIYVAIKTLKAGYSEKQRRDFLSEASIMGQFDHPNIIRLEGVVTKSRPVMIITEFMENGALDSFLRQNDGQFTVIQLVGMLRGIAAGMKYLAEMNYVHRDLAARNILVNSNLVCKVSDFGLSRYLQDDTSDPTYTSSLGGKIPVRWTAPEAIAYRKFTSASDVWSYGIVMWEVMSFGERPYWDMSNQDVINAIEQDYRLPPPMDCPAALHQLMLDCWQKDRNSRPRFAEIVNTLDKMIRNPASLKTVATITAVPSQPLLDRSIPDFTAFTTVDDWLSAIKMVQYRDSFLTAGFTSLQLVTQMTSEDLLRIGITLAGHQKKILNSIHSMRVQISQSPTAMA
Assay [19] deals with Tyrosine-protein kinase JAK2 (Homo sapiens, UniProt O60674). The assay is described as follows: Inhibition of JAK2 by FRET assay.
Chain of Tyrosine-protein kinase JAK2 (O60674 whole entry): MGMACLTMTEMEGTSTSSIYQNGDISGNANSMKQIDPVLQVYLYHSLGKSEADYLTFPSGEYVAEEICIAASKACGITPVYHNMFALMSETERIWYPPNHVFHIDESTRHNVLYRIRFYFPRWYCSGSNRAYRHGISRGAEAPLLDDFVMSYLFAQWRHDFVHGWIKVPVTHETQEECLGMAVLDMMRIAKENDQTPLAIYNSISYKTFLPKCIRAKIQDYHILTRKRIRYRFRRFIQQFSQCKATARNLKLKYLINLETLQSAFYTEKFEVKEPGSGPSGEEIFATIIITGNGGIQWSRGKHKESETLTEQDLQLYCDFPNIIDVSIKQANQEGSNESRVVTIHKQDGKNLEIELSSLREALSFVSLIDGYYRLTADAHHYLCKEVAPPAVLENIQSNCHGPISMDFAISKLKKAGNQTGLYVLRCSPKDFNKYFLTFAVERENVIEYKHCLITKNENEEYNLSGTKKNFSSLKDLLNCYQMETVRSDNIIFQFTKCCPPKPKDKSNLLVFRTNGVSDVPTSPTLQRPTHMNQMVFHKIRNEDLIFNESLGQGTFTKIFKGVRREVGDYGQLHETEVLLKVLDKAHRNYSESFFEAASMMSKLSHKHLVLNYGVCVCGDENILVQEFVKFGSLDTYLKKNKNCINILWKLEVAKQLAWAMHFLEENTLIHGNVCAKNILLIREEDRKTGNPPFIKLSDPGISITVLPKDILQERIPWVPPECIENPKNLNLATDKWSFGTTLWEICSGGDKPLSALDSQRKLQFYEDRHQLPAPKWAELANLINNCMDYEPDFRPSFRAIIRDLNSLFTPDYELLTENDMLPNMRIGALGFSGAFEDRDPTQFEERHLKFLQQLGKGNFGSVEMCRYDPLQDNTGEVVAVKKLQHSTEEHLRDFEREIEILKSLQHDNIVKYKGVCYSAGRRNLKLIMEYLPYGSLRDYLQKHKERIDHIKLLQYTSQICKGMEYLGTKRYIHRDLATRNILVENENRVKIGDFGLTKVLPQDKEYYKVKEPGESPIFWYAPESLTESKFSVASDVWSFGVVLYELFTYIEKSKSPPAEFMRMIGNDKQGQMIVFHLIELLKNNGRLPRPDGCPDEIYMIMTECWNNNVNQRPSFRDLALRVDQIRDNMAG
The target in assay [20] is High affinity nerve growth factor receptor (Homo sapiens, UniProt P04629). Briefly: Inhibition of NTRK1 by FRET assay.
Assay [21] addresses Serine/threonine-protein kinase Chk1 (Homo sapiens, UniProt O14757). Briefly: Inhibition of CHEK1 by FRET assay.
Another assay concerns the target Aurora kinase A (Homo sapiens, UniProt O14965). The assay is described as follows: Inhibition of AURKA by FRET assay.
Assay [22] concerns the target Serine/threonine-protein kinase 26 (Homo sapiens, UniProt Q9P289). The assay is described as follows: Inhibition of MST4 by FRET assay.
The target in assay [23] is AMP-activated protein kinase (AMPK) alpha-1/beta-1/gamma-1 (Homo sapiens, UniProt P54619+Q13131+Q9Y478). The assay is described as follows: Inhibition of AMPK A1/B1/G1 by FRET assay. Format: protein-complex assay.
Assay [24] deals with Glycogen synthase kinase-3 beta (Homo sapiens, UniProt P49841). Briefly: Inhibition of GSK3B by FRET assay.
Chain of Glycogen synthase kinase-3 beta (P49841 whole entry): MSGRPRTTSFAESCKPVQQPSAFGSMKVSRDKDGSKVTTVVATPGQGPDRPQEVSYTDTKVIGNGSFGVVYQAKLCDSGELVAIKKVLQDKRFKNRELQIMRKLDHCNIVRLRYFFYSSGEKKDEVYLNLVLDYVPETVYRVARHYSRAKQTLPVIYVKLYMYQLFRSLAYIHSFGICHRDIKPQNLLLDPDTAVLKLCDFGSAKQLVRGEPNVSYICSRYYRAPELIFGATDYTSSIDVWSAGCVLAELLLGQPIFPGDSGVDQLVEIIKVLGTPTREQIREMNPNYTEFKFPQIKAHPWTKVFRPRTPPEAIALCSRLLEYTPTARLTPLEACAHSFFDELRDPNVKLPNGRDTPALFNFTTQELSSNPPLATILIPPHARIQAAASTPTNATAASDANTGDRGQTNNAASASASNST
Assay [25] concerns the target Serine/threonine-protein kinase PAK 3 (Homo sapiens, UniProt O75914). Briefly: Inhibition of PAK3 by FRET assay.

One may read the IC50 as the concentration needed to halve the response being measured.

Chain of Serine/threonine-protein kinase PAK 3 (O75914 whole entry): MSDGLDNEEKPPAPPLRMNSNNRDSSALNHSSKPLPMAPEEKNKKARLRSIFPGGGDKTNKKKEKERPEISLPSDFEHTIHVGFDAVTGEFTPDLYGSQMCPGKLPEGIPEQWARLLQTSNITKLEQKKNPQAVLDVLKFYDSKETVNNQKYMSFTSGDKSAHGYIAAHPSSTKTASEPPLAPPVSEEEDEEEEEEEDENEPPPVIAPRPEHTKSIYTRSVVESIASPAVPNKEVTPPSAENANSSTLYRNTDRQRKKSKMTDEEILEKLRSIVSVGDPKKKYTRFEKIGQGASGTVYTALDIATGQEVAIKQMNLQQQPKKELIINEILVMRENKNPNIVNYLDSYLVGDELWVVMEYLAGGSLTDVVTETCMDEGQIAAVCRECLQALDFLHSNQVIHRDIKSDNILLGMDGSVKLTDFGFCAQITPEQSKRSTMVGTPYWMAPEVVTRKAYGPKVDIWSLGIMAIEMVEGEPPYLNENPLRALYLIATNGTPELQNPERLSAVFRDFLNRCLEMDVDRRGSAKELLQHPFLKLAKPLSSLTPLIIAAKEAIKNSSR
Chain of Activin receptor type-1B (P36896 whole entry): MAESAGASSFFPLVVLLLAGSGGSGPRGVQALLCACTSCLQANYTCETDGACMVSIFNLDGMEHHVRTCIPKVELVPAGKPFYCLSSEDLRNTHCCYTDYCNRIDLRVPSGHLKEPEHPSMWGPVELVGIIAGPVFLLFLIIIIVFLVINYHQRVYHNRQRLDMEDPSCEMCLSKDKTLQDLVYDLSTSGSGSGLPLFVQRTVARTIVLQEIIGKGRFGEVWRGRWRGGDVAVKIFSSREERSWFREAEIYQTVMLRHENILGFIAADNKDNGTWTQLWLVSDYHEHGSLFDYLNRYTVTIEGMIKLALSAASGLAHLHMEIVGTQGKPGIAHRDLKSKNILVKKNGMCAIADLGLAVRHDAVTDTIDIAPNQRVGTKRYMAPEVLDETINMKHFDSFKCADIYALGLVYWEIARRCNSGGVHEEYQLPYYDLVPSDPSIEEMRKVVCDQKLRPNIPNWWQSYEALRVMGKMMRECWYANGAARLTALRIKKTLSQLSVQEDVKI
Chain of Serine/threonine-protein kinase 26 (Q9P289 whole entry): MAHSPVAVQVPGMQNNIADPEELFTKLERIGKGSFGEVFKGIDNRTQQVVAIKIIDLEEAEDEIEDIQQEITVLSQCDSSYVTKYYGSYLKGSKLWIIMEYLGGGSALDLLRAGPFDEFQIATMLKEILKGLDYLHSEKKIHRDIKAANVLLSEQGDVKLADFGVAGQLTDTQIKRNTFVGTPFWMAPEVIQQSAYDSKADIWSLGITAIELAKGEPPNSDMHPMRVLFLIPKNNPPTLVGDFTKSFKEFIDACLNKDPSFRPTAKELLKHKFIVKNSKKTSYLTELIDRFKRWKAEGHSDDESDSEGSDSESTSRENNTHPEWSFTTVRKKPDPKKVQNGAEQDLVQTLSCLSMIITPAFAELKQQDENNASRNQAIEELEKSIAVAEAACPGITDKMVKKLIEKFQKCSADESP

For `CSc1ccccc1Nc1nc(N(C)CC2CCNCC2)nc2c(NCC3CC3)ncnc12`, the IC50 at Ketohexokinase [1] stood at 0.066 µM.

With `CSc1ccccc1Nc1nc(N2CCNC[C@H]2C)nc2c(NCC3CC3)ncnc12`, the IC50 on Ketohexokinase [1] was found to be 0.058 µM.

On to `CSc1ccccc1Nc1nc(N2CCC(N3CCN(C)CC3)CC2)nc2c(NCC3CC3)ncnc12`, for which the IC50 at Ketohexokinase [1] was found to be 0.03 µM.

As to `CSc1ccccc1Nc1nc(N2C[C@@H]3CCCN[C@@H]3C2)nc2c(NCC3CC3)ncnc12`, the IC50 on Ketohexokinase [1] came out at 0.3 µM.

With `CSc1ccccc1Nc1nc(N2CCC(N3CCNCC3)CC2)nc2c(NCC3CC3)ncnc12`, the IC50 on Ketohexokinase [1] stood at 0.028 µM.

In the case of `CSc1ccccc1Nc1nc(N2CCNC(C)(C)C2)nc2c(NCC3CC3)ncnc12`, at Ketohexokinase [1], the IC50 was found to be 0.04 µM.

Turning to `CSc1ccccc1Nc1nc(N2CCC[C@@H]3CNC[C@@H]32)nc2c(NCC3CC3)ncnc12`, at Ketohexokinase [1], the 50% inhibitory concentration (IC50) worked out at 0.44 µM.

Regarding `CSc1ccccc1Nc1nc(N2C3CCC2CC(N)C3)nc2c(NCC3CC3)ncnc12` (stereo not given), the IC50 at Ketohexokinase [1] turned out to be 0.8 µM.

In the case of `CSc1ccccc1Nc1nc(N2C[C@@H](C)N[C@@H](C)C2)nc2c(NCC3CC3)ncnc12`, the IC50 on Ketohexokinase [1] was found to be 0.11 µM.

Regarding `CSc1ccccc1Nc1nc(N2CCC3(CCNC3)C2)nc2c(NCC3CC3)ncnc12` (stereo not given), the IC50 on Ketohexokinase [1] was determined as 0.043 µM.

On to `CSc1ccccc1Nc1nc(N2CCNCC2)nc2c(NCC3CC3)ncnc12`, for which the IC50 on Ketohexokinase [2] is below 0.5 µM.

As to `CSc1ccccc1Nc1nc(N2CCC3(CNC3)C2)nc2c(NCC3CC3)ncnc12`, the IC50 at Ketohexokinase [1] turned out to be 0.002 µM; at Ketohexokinase [2] it was 0.15 µM.

Take `CSc1ccccc1Nc1nc(N2CCN(C3CCNCC3)CC2)nc2c(NCC3CC3)ncnc12`: the IC50 in assay [3], in [4], in [5], in assay [6], in [7] and in assay [8] was below 10 µM each time. Further, the IC50 (in [9]; against Activin receptor type-1B; in assay [10]; in assay [11]; in assay [12]; in assay [13]) was below 10 µM throughout. For the same compound, the IC50 (in [14]; in assay [15]; in assay [16]; in [17]; in assay [18]; at Ephrin type-B receptor 1) was below 10 µM in each case. Besides, the IC50 was below 10 µM in [19]; below 10 µM in [20]; 0.048 µM at Ketohexokinase [1]; below 10 µM in assay [21]; below 10 µM on Aurora kinase A; below 10 µM in assay [22]. Further, the IC50 in [23], in assay [24] and in assay [25] was below 10 µM in each case.

As to `CSc1ccccc1Nc1nc(N2C[C@@H]3C[C@H]2CN3)nc2c(NCC3CC3)ncnc12`, at Ketohexokinase [1], the IC50 came out at 4.6 µM.

As for `CSc1ccccc1Nc1nc(N2CCNC(C)C2)nc2c(NCC3CC3)ncnc12` (stereo not given), on Ketohexokinase [1], the IC50 turned out to be 0.07 µM.

For the compound `CSc1ccccc1Nc1nc(N2CCC3(CCNCC3)CC2)nc2c(NCC3CC3)ncnc12`, the IC50 on Ketohexokinase [1] was found to be 0.015 µM.

On to `CSc1ccccc1Nc1nc(N2CCNc3ccccc3C2)nc2c(NCC3CC3)ncnc12`, for which the IC50 on Ketohexokinase [1] is 6 µM.

Consider `CSc1ccccc1Nc1nc(N2CCC(C3CCNCC3)CC2)nc2c(NCC3CC3)ncnc12`, for which, at Ketohexokinase [1], the IC50 was 0.05 µM.
